In patent publication US10543183B2, “Treatment and diagnosis of melanoma” (The Rockefeller University, priority 2012, dated 2020):
Counter-ions that a name gives are not always drawn.

Experiments:
[1] = system: DNAJA4 expression in MeWo cells; assay: DNAJA4 mRNA expression by qRT-PCR in melanoma cells; format: cell-based, human; conditions: parental MeWo cells, 48 hours
Description: Total RNA was extracted from various cell lines using the miRvana kit (AM1560, Applied Biosystems, Austin, Tex.). The expression levels of mature miRNAs were quantified using the Taqman miRNA expression assay (4427975-0002228, Applied Biosystems). RNU44 was used as an endogenous control for normalization. For mRNA expression analyses, 600 ng of total RNA was reverse transcribed using the cDNA First-Strand Synthesis Kit (18080-051, Invitrogen), and roughly 200 ng of the resulting cDNA was then mixed with SYBR green PCR Master Mix (4309155, Applied Biosystems) and the appropriate primers. Each reaction was performed in quadruplicate, and mRNA expression was quantified by performing real-time PCR amplification using an ABI Prism 7900HT Real-Time PCR System (Applied Biosystems). GAPDH was used as an endogenous control for normalization. The following primers were used: […]

[2] = system: MeWo human melanoma tumors; assay: tumor histochemistry (MECA-32, Ki-67, cleaved caspase-3); format: in vivo, mouse
From the text: Animals were intracardially perfused with PBS followed by 4% paraformaldehyde (PFA). Fixed lungs were embedded in paraffin and sectioned into 5-μm-thick increments. Macroscopic lung metastatic nodules were visualized by H&E staining. For analysis of tumor endothelial cell content, proliferation, and apoptosis, primary tumor paraffin-embedded sections were stained with antibodies against MECA-32 (Developmental Studies Hybridoma Bank, University of Iowa), KI-67 (ab15580, Abcam), and cleaved caspase-3 (9661, Cell Signaling), respectively.
Tumors were excised from mice and fixed in 4% paraformaldehyde at 4° C. for 48 hours. Then, tumors were paraffin-embedded and sectioned into 5-μm-thick increments. For endothelial cell content analysis in tumors, tumor sections were stained with a primary antibody against the mouse endothelial cell marker MECA-32 (Developmental Studies Hybridoma Bank, The University of Iowa, IA) and counterstained with DAPI nuclear stain. To determine tumor cell proliferation and apoptosis, tumor sections were stained with antibodies against the proliferative marker Ki-67 (Abcam, ab15580, Cambridge, Mass.) and the apoptotic marker cleaved caspase-3 (9661, Cell Signaling, Danvers, Mass.), respectively. Various Alexa Flour dye-conjugated secondary antibodies were used to detect primary antibodies. […] Endothelial cell content density and tumor proliferation rate were quantified by calculating the average percentage of MECA-32 or Ki-67 positively-staining area out of the total tumor area. Tumor apoptosis was measured by counting the number of cleaved caspase-3 expressing cells per given tumor area.

[3] = system: MeWo brain metastatic derivative cells; assay: brain metastasis assay, intracardiac injection; format: in vivo, mouse; conditions: oral, diet 100 mg/kg
Description: Melanoma cells used for in vivo metastasis assays were transduced with a stably expressed retroviral construct encoding a luciferase reporter gene (Ponomarev et al., 2004), allowing us to monitor the in vivo progression of melanoma cells by bioluminescence imaging. The following numbers of melanoma cells, resuspended in 100 μL of PBS, were injected intravenously via the tail-vein: 4×10^4 MeWo cells, 2.5×10^5 HT-144 cells, 2×10^5 SK-Mel-334.2 cells, 5×10^4B 16F10 cells, and 1×10^5YUMM cells. The MeWo, HT-144, and SK-Mel-334.2 cells were injected into 6-8 week-old sex-matched NOD scid mice, while the B16F10 and YUMM cells were injected into 6-8 week-old sex-matched C57BL/6 mice. In all experiments assessing at the effects of GW3965 on metastasis formation, mice were pre-treated on a control diet or a GW3965-supplemented diet (20 mg/kg) for 10 days. To assess the effect of GW3965 treatment on brain metastasis, 1×10^5 MeWo brain-metastatic derivatives were injected intracardially into athymic nude mice. Immediately following injection, mice were randomly assigned to a control diet or GW3965-supplemented diet (100 mg/kg). […]

[4] = system: breast cancer, renal cell cancer and pancreatic cancer cell lines; assay: endothelial recruitment by other cancer types; format: cell-based, human
[5] = system: VEGF-induced endothelial recruitment; assay: in vivo matrigel plug assay; set-up: species or system mouse; conditions: VEGF 400 ng/mL + 10 μg/mL
Description: 10 μg/mL recombinant human ApoE3 (4696, BioVision), 10 μg/mL BSA (A2153, Sigma Aldrich), or 400 ng/ml VEGF were mixed with matrigel (356231, BD Biosciences) as indicated. 400 μL of matrigel containing the indicated recombinant proteins were injected subcutaneously just above the ventral flank of immunocompromised NOD-SCID mice. Plugs were extracted on day 3 post-injection and fixed in 4% paraformaldehyde for 48 hours. Plugs were then paraffin-embedded and sectioned at 5-μm-thick increments. Plug cross-sectional sections were immunohistochemically stained using a primary antibody against the mouse endothelial antigen MECA-32 (Developmental Studies Hybridoma Bank, The University of Iowa, IA), detected by peroxidase-conjugated secondary antibody, and subsequently visualized by DAB oxidization. To quantify the extent of endothelial cell invasion into each matrigel plug, the number of endothelial cells was counted in 4-5 random fields for each plug, and the average number of endothelial cells per given plug area was calculated.

[6] = system: MeWo-LM2 cells or endothelial cells; assay: serum starvation assay; format: cell-based, human; conditions: 100 μM, 0.2% FBS
Description: The number of viable cells was counter after 8, 16, and 24 hours.

Compound | expression of DNAJA4 [1] | decrease in number of actively proliferating tumor cells in vivo ([2]; Ki-67) [%] | number of apoptotic cells ([2]; cleaved caspase-3) | reduction in endothelial cell content of tumors ([2]; diet 20 mg/kg, 35 days, MECA-32) | brain colonization [3] | systemic dissemination [3] | endothelial recruitment across breast, renal cell and pancreatic cancer [4] | suppression of VEGF-induced endothelial recruitment into subcutaneous matrigel plugs [5] | survival in serum starvation conditions [6]
O=C(O)Cc1cccc(OCCCN(Cc2cccc(C(F)(F)F)c2Cl)CC(c2ccccc2)c2ccccc2)c1 [GW3965 2, 3-[3-[N-(2-Chloro-3-trifluoromethylbenzyl)-(2,2-diphenylethyl)amino]propyloxy] phenylacetic acid hydrochloride] | increased expression | 23 | without a change | roughly 2 fold | inhibited | inhibited | – | – | –
recombinant ApoE3: recombinant human ApoE3 (4696, BioVision) | – | – | – | – | – | – | inhibited | greater than 40 fold | did not affect
